Measurements taken from PubChem BioAssay AID463199 (Broad Institute, 2010).
Activity calls are given as the source filed them.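 How the source made its calls: active means AC50, the dose giving half-maximal effect, exceeds a fixed cutoff for a compound that rescues yeast growth under heat; inactive means the rest, inconclusive results apart.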

Test system: S. cerevisiae Burl-1 ts mutant growth, BacTiter-Glo, 38.5C 24 h
Assay: restored growth of temperature-sensitive Burl-1 yeast – whole organism, S. cerevisiae, Burl-1 ts mutant, luminescence, counter-screen for SUMOylation pathway inhibitor project, dose response (AID 463199)

SMILES	AC50
COc1cc(/C=N/NC(=O)c2ccncc2)ccc1OC(=O)c1ccco1	> 42 µM (inactive)
CN(C(=O)CSc1nc(-c2ccccc2)c(-c2ccccc2)o1)C1CCS(=O)(=O)C1 (centres undefined)	> 42 µM (inactive)
CCOC(=O)C1ON2CCCCC2C1(O)C(F)(F)F (centres undefined)	> 42 µM (inactive)
O=C(CSc1nnc(-c2ccccc2Cl)o1)Oc1ccc(Br)cc1	> 42 µM (inactive)
CC1=CC(C)(C)N2C(=O)C3(NCCc4c3[nH]c3ccccc43)c3cc(C)cc1c32 (centres undefined)	> 42 µM (inactive)
O=C(NCCc1cnccn1)C1CCC(=O)N(Cc2ccc(Cl)cc2)C1 (centres undefined)	> 42 µM (inactive)
Cc1cc([N+](=O)[O-])nn1CC(=O)NNC(=S)Nc1ccc([N+](=O)[O-])cc1	> 21 µM (inactive)
Cc1ccc(S(=O)(=O)N2[C@@H](c3ccccc3F)C(C(=O)O)=CC[C@H]2c2ccc3c(c2)OCO3)cc1	> 42 µM (inactive)
CC(=O)Nc1ccc(CN2CCCC(CO)(Cc3cccc(Cl)c3)C2)cc1 (centres undefined)	> 42 µM (inactive)
CCn1nnc(-c2ccccc2NC(=O)c2cnccn2)n1	> 42 µM (inactive)
Cc1cc(C)n(C(=O)CNC(=O)c2ccc3c(c2)OCCO3)n1	> 42 µM (inactive)
CN(C)S(=O)(=O)c1cccc(NC(=O)C(c2ccccc2)c2ccccc2)c1	> 42 µM (inactive)
CC(C)C1=CC(=Nc2ccc(S(N)(=O)=O)cc2)C=C(C(C)C)C1=O	> 42 µM (inactive)
CCCCCCNc1c(C(=O)OCC)c(=O)[nH]c2ccccc12	> 42 µM (inactive)
O=C1Nc2ccccc2/C1=C/c1ccc([N+](=O)[O-])cc1	> 42 µM (inactive)
COc1ccc(-c2csc(NC(=O)CS(=O)(=O)c3ccc(F)cc3)n2)cc1OC	> 42 µM (inactive)
COc1ccccc1N1C(=O)c2ccccc2NC1C(OC)OC (centres undefined)	> 42 µM (inactive)
O=C(c1ccc(CS(=O)(=O)c2ccccc2)o1)N1CCOCC1	> 42 µM (inactive)
O=C(O)c1cc(S(=O)(=O)Nc2ccc(OCc3ccccc3)cc2)ccc1Br	> 42 µM (inactive)
CCCCC1=CC2=CC(=O)C(C)(OC(=O)CC)C(=O)C2=CN1CCCOC(C)C (centres undefined)	> 42 µM (inactive)
CN(C)c1ccc(NC(=O)CSc2nc(N)c(C(=O)Nc3ccc(N(C)C)cc3)s2)cc1	> 42 µM (inactive)
Cc1cc(C)n2nc(SCC(=O)NC3CCCC(C)C3C)nc2n1 (centres undefined)	> 42 µM (inactive)
CCc1cc2c(NCCO)ncnc2s1	> 42 µM (inactive)
CCNCc1nc2cc(Cl)ccc2c(=O)[nH]1	> 42 µM (inactive)
CN1CCN(CC(=O)N2c3ccccc3C(=O)Nc3cccnc32)CC1	> 42 µM (inactive)

SMILES	AC50
COC(=O)c1c(C)n(Cc2ccc3c(c2)OCO3)c2ccc(O)cc12	> 42 µM (inactive)
O=C(c1ccc(Br)cc1)C(CN1CCOCC1)c1ccccc1 (centres undefined)	1.86 µM
CCn1cnc2sc(-c3ccccc3)cc2c1=O	> 42 µM (inactive)
Cc1cc(C)nc(-n2nc(C)cc2NC(=O)CNCc2ccccc2)n1	> 42 µM (inactive)
CCOc1ccc(-n2cc(C(=O)NCCOC)c3cc(OC)c(OC)cc3c2=O)cc1	> 42 µM (inactive)
N#Cc1c(-c2ccco2)cc(-c2cccnc2)nc1N	> 42 µM (inactive)
CC(Oc1ccccc1)C(=O)Nc1ccccc1O (centres undefined)	> 42 µM (inactive)
CC(=O)c1ccc(Nc2cc(C)nc3ccccc23)cc1	> 42 µM (inactive)
Cc1cc(C(=O)OCC(=O)Nc2cccc(S(N)(=O)=O)c2)c2ccccc2n1	> 42 µM (inactive)
Cc1ccc(C)c(S(=O)(=O)n2cnc3ccccc32)c1	> 42 µM (inactive)
Cc1cc(C)cc(C(=O)NC(CC(N)=O)c2ccc(NCCN3CCOCC3)c([N+](=O)[O-])c2)c1 (centres undefined)	> 42 µM (inactive)
CCOC1(OCC)C(c2ccc(Cl)cc2)C(C#N)(C#N)C1(OCC)OCC (centres undefined)	> 42 µM (inactive)
COc1cccc(N=Nc2c(=O)[nH]n3c(=O)cc(C)[nH]c23)c1	> 42 µM (inactive)
COCCCn1c2nc3ccccc3nc2c2c(=O)n(Cc3ccc(Cl)cc3)cnc21	> 42 µM (inactive)
Cc1cccc(NC(=O)CSCC(=O)N2CCCc3ccccc32)c1	> 42 µM (inactive)
O=C(NCCCn1ccnc1)Nc1cccc2ccccc12	> 42 µM (inactive)
COC(=O)c1ccc(SCC(=O)N2CCC(C)CC2)c([N+](=O)[O-])c1	> 42 µM (inactive)
Cc1ccc(C(=O)/C=C/Nc2ccccc2C(N)=O)cc1	> 42 µM (inactive)
CCOc1ccc(NC(=O)CC2C(=O)N(c3ccccc3)C(=S)N2Cc2ccccn2)cc1 (centres undefined)	> 42 µM (inactive)
C/C(O)=C(\N=Nc1cc(C)ccc1O)C(N)=O	> 42 µM (inactive)
CCC(NC(=O)c1ccccc1NC(=O)c1ccco1)C(=O)NC1CCCCC1 (centres undefined)	> 42 µM (inactive)
Cn1c(SCC(=O)Nc2nnc(-c3ccccc3)o2)nnc1C1CC1	> 42 µM (inactive)
CSCCC(NC(=O)c1ccco1)C(=O)N1CCN(Cc2ccccc2)CC1 (centres undefined)	> 42 µM (inactive)
CC(C)(C)NC(=O)C(c1cccs1)N(Cc1cccs1)C(=O)c1ccc(CN2CCOCC2)o1 (centres undefined)	> 42 µM (inactive)
